Measured values from patent US5948808A, “Indole-3-carbinol, diindolylmethane and substituted analogs as antiestrogens” (The Texas A&M University System, priority 1997, dated 1999).
Where two headings read alike, the source gives them in different places.

Tests used:
[1] = tested on: MCF-7 cells; test: Effect of compounds on MCF-7 proliferation (E2-induced growth); type: cell-based; details: Homo sapiens, MCF7, 144 h, with E2 (1 nM), 6 days
Description: MCF-7 cells (50,000 per well) were grown in six-well plates in DME-F12 medium as described in Liu, et al., Mol. Cell Endocrinol, 87:19-28, 1992. The cells were given fresh medium plus the compounds being tested every other day. After 6 days of treatment, the cells were harvested and counted with a Coulter counter (Coulter Electronics, Hialeah, Fla.) as described by Liu et al., J. Natl. Cancer Inst., 86. 1758-1765, 1994; Tiwari et al., J. Natl, Cancer Inst. 86, 126-131, 1994. In some cases, 17-β-estradiol (E2) (1×10^-9 M) was also added in combination with the IC3 or DIM analogs.
__________________________________________________________________________
EFFECTS OF DIFFERENT CONCENTRATIONS OF I3C
AND SUBSTITUTED ANALOGS ON THE GROWTH
OF MCF-7 CELLS IN THE PRESENCF OF E2
% of E2-Induced Response (Conc. of I3C Analogs)
EFFECTS OF DIFFERENT CONCENTRATIONS OF DIM
AND SUBSTITUTED ANALOGS ON THE
GROWTH OF MCF-7 CELLS IN THE PRESENCE OF E2
% of E2-Induced Response (Conc. of DIM Analogs)

[2] = Toxic endpoints (organ weights) in rats of the DMBA-induced mammary carcinoma model; type: in vivo, Sprague-Dawley rats; details: 10 treatments by gavage 5 mg/kg every other day, sacrificed day 21, mean ± standard error; for Uterine Wet Weight: control 0.182 ± 0.016; for Liver Weight: control 4.07 ± 0.19
[3] = tested on: DMBA-induced mammary tumors; test: Tumor growth in DMBA-induced mammary carcinoma model; type: in vivo, Sprague-Dawley rats; details: 10 treatments by gavage 5 mg/kg every other day, sacrificed day 21; mean ± standard error
[4] = tested on: EROD; test: EROD in rats of the DMBA-induced mammary carcinoma model; type: in vivo, Sprague-Dawley rats; details: 10 treatments by gavage 5 mg/kg every other day, sacrificed day 21; mean ± standard error
[5] = tested on: mammary tumors; details: oral, 20 hours prior to DMBA; cited from earlier work
[6] = tested on: estrogen-regulated tumors; details: cited from earlier work
[7] = tested on: DMBA-induced mammary tumor; details: dietary I3C; 20% Brussels sprouts; cited from earlier work
[8] = read-out: % of E2-Induced Response (Conc. of I3C Analogs)
[9] = read-out: % of E2-Induced Response (Conc. of DIM Analogs)

| Structure (SMILES) | activity at 0.1 µM [1, 8] [%] | activity at 1 µM [1, 8] [%] | activity at 10 µM [1, 8] [%] | activity at 50 µM [1, 8] [%] | activity at 100 µM [1, 8] [%] | activity at 0.01 µM [1, 9] [%] | activity at 0.1 µM [1, 9] [%] | activity at 1 µM [1, 9] [%] | activity at 5 µM [1, 9] [%] | activity at 10 µM [1, 9] [%] | further results |
| --- | --- | --- | --- | --- | --- | --- | --- | --- | --- | --- | --- |
| Cc1c(CO)c2ccccc2n1C [1,2-Dimethyl-I3C] | 98 ± 5.68 | 94.4 ± 7.73 | 65.9 ± 2.86 | 0.35 ± 0.24 | 0.42 ± 0.14 |  |  |  |  |  |  |
| Brc1ccc2[nH]cc(Cc3c[nH]c4ccc(Br)cc34)c2c1 [5-Bromo-DIM, 5,5'-dibromo-diindolylmethane] |  |  |  |  |  | 99.03 ± 0.49 | 106 ± 3.38 | 75 ± 1.35 | 9.92 ± 0.58 | 0.3 ± 0.04 |  |
| OCc1c[nH]c2ccc(Br)cc12 [5-Bromo-I3C, 5-bromo-indole-3-carbinol] | 96.3 ± 6.97 | 97.3 ± 6.33 | 94.4 ± 2.47 | 59.6 ± 1.05 | 14.9 ± 0.72 |  |  |  |  |  |  |
| Clc1ccc2[nH]cc(Cc3c[nH]c4ccc(Cl)cc34)c2c1 [5-Chloro-DIM, 5,5'-dichloro-diindolylmethane] |  |  |  |  |  | 98.4 ± 11.2 | 98.3 ± 8.34 | 87.3 ± 5.98 | 0.75 ± 0.1 | 0.99 ± 0.27 |  |
| OCc1c[nH]c2ccc(Cl)cc12 [5-Chloro-I3C, 5-chloro-indole-3-carbinol] | 94 ± 11.2 | 92.4 ± 3.14 | 82.2 ± 4.55 | 29.8 ± 5.98 | 1.02 ± 0.22 |  |  |  |  |  |  |
| Fc1ccc2[nH]cc(Cc3c[nH]c4ccc(F)cc34)c2c1 [5-Fluoro-DIM, 5,5'-difluoro-diindolylmethane] |  |  |  |  |  | 90.3 ± 2.5 | 103 ± 2.63 | 77.1 ± 3.51 | 35.7 ± 5.13 | 8.46 ± 1.17 | Uterine Wet Weight [2]: 0.208 ± 0.044 % body weight; Liver Weight [2]: 4.30 ± 0.29 % body weight; Tumor Volume [3]: 35.8 ± 16.6 % Control; Tumor Weight [3]: 45.0 ± 20.0 % Control; EROD [4]: 157.6 ± 22.1 % Control |
| COc1ccc2[nH]cc(Cc3c[nH]c4ccc(OC)cc34)c2c1 [5-Methoxy-DIM, 5,5'-dimethoxy-diindolylmethane] |  |  |  |  |  | 87.2 ± 3.52 | 89.4 ± 3.12 | 69.4 ± 3.95 | 37.1 ± 4.52 | 11.4 ± 1.63 | Uterine Wet Weight [2]: 0.224 ± 0.034 % body weight; Liver Weight [2]: 4.16 ± 0.23 % body weight; Tumor Volume [3]: 22.1 ± 4.4 % Control; Tumor Weight [3]: 22.1 ± 4.4 % Control; EROD [4]: 151.2 ± 43.4 % Control |
| COc1ccc2[nH]cc(CO)c2c1 [5-Methoxy-I3C, 5-methoxy-indole-3-carbinol] | 87.6 ± 5.4 | 78.4 ± 11.9 | 58.9 ± 7.96 | 2.97 ± 0.2 | 0.61 ± 0.14 |  |  |  |  |  |  |
| Cc1ccc2[nH]cc(CO)c2c1 [5-Methyl-I3C, 5-methyl-indole-3-carbinol] | 87.8 ± 11.1 | 81.6 ± 10.8 | 53 ± 4.24 | 0.87 ± 0.11 | 0.57 ± 0.2 |  |  |  |  |  |  |
| O=[N+]([O-])c1ccc2[nH]cc(CO)c2c1 [5-Nitro-I3C] | 94.7 ± 2.05 | 92.7 ± 3.89 | 44.2 ± 3.34 | 1.71 ± 0.06 | 0.39 ± 0.06 |  |  |  |  |  |  |
| c1ccc2c(Cc3c[nH]c4ccccc34)c[nH]c2c1 [DIM, 3,3'diindolylmethane, reference compound] |  |  |  |  |  | 107 ± 8.43 | 97.3 ± 3.56 | 77 ± 5.16 | 22.5 ± 2.47 | 6.84 ± 0.71 | Uterine Wet Weight [2]: 0.184 ± 0.027 % body weight; Liver Weight [2]: 3.87 ± 0.22 % body weight; occurrence of mammary tumors (in words) [5]: inhibited the occurrence of mammary tumors; Tumor Volume [3]: 19.9 ± 5.8 % Control; Tumor Weight [3]: 23.7 ± 6.0 % Control; EROD [4]: 106.1 ± 22.4 % Control |
| OCc1c[nH]c2ccccc12 [I3C, indole 3-carbinol, reference compound] | 100 ± 5.7 | 96.3 ± 3.23 | 83.9 ± 2.46 | 36.9 ± 0.65 | 8.15 ± 1 |  |  |  |  |  | formation or growth of estrogen-regulated tumors (in words) ([6]; rodent mammary, endometrium and uterus): inhibit formation or growth of estrogen-regulated tumors; mammary carcinogenesis (in words) ([6]; rodent models): inhibits mammary carcinogenesis in rodent models; occurrence of mammary tumors (in words) [5]: inhibited the occurrence of mammary tumors; DMBA-induced mammary tumor formation and progression (in words) [7]: inhibited DMBA-induced mammary tumor formation and progression |
| Cn1cc(Cc2cn(C)c3ccccc23)c2ccccc21 [N-Methyl-DIM, N,N'-dimethyl-diindolylmethane] |  |  |  |  |  | 82.8 ± 10.8 | 96.4 ± 2.94 | 78.5 ± 3.03 | 3.92 ± 0.49 | 0.85 ± 0.12 |  |
| Cn1cc(CO)c2ccccc21 [N-Methyl-I3C, N-methyl-indole-3-carbinol] | 95.6 ± 4.26 | 96.2 ± 1.66 | 47.8 ± 2.13 | 14.4 ± 0.9 | 3.91 ± 0.64 |  |  |  |  |  |  |
